# Measured values: US20230416261A1, “ETHANEDIAMINE-HETEROCYCLE DERIVATIVES AS INHIBITORS OF PROTEIN ARGININE METHYLTRANSFERASES” (Board of Regents, The University of Texas System, priority 2021, published 2023)
# Legend:
# PRMT1 [1] = target: T1, PRMT1 (Homo sapiens, UniProt Q99873); experiment: PRMT1 RKO Cellular Target Engagement Assay (In-Cell Western, asymmetric di-methyl arginine); assay type: cell-based; conditions: RKO cells, 48 hr compound incubation; read-out: RKO IC50 (PRMT-1 Target Engagement)
# In short: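 RKO cells (1,000/well) received 1:3 serially diluted compound for 48 h at 37 °C, then were fixed, permeabilised and immunostained for asymmetric di-methyl arginine by In-Cell Western. The 800 nm antibody signal was normalised to CellTag 700 nm; IC50 from four-parameter logistic fit.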
# PATC53 cells = experiment: PATC53 Long Term Phenotypic Assay (14 days, crystal violet viability); assay type: cell-based; conditions: 336 h
# Method: PATC53 cells were derived from the PATC53 PDX model and kindly provided by Jason Fleming (MDACC). The cells were routinely maintained in DMEM/F12 Medium (Corning, Catalog #10-090-CV) supplemented with 10% fetal bovine serum (Sigma, Catalog #F2442), 100 units/mL penicillin and 100 μg/mL streptomycin (Gibco, Catalog #15140-122) in a humidified incubator (37° C., 5% CO2). Prior to the assay, cells were seeded onto a 12-well, TC treated plate (Corning, catalog #353043) at a density of 250 cells per well in a volume of 1 mL. The plate was incubated for 24 hours at 37° C. and 5% CO2. Stock solutions of the test compounds were prepared in 100% DMSO (Sigma, Catalog #D2650) and serially diluted 1:3 using 100% DMSO. Compounds were additionally diluted 1:100 in culture medium, and 110 μL/well was transferred to the tissue culture plate. Following the compound addition, the plate was incubated at 37° C. and 5% CO2 for 14 days. Viability was then assessed by crystal violet staining (Fisher Scientific, Catalog #C58125) as follows: 450 μL of crystal violet (1 mg/mL) was added to the plate for a 10 minute incubation at room temperature. After incubation, the plate was washed 3× with distilled water to remove excess dye and allowed to dry overnight. The crystal violet was solubilized using 10% HOAc (500 μL) for 10 minutes at room temperature, while shaking. A volume of 100 μL was then transferred to a 96-well SpectraPlate (Perkin Elmer, Catalog #6005649). Absorbance at 590 nm was measured with a BioTek Synergy Neo. IC50 values were calculated using a four-parameter logistic curve fit using Genedata Screener software.
# DOHH2 cells = experiment: DOHH2 Long Term Phenotypic Assay (7 days, Cell Titer-Glo viability); assay type: cell-based; conditions: Homo sapiens, DOHH-2, 168 h, Cell Titer-Glo 2.0
# In short: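 DOHH2 lymphoma cells (250 per well) in RPMI-1640 with 10% FBS were exposed to 1:3 serially diluted compounds for 7 days at 37 °C, 5% CO2. Viability was read by CellTiter-Glo 2.0 luminescence, and IC50 values came from four-parameter logistic fits.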
# PRMT1 [2] = target: T1, PRMT1; experiment: PRMT1 Enzymatic Assay (LANCE TR-FRET, methylation of histone H4 at Arg3); assay type: biochemical; parameters: purchased SignalChem P365-380G; conditions: PRMT1 1.5 nM, SAM 1 μM, biotinylated histone H4 (1-21) 25 nM; read-out: PRMT-1 IC50
# In short: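 PRMT1 (1.5 nM) preincubated 15 min with compound at room temperature, then reacted 1 h with 1 μM SAM and 25 nM biotinylated histone H4 (1-21) in 50 mM Hepes pH 8, 1 mM TCEP, 0.003% Tween-20. H4R3me detected by TR-FRET (665/620 nm ratio); IC50 from four-parameter logistic fit.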
# T1 sequence (Q99873 whole entry): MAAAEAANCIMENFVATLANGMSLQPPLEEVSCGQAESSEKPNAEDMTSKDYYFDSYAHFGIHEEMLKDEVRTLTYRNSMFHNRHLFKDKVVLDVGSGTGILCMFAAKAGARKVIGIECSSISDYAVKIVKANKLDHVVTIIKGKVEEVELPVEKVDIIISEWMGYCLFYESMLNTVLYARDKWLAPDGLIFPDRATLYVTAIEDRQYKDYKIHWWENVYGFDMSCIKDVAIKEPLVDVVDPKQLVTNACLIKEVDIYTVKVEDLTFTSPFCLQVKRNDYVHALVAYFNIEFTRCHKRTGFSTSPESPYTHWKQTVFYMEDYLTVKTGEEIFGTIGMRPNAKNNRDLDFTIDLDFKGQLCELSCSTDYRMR
IC50 (PRMT1 [1]) [µM],IC50 (PRMT1 [2]) [µM],Compound,IC50 (PATC53 cells) [µM],IC50 (DOHH2 cells) [µM]
0.271,0.065,"CNCCN(C)Cc1nn2c(c1C1CCC(COC)(COC)CC1)CN(C(=O)C1CCC(F)(F)CC1)CC2 [Example 29, (3-(4,4-bis(methoxymethyl)-cyclohexyl)-2-((methyl(2-(methylamino)ethyl)amino)-methyl)-6,7-dihydropyrazolo-[1,5-a]pyrazin-5(4H)-yl)(4,4-difluorocyclohexyl)-methanone]",0.084,0.099
0.795,0.081,"CNCCN(C)Cc1nn2c(c1C1CCC(COC)(COC)CC1)CN(C(=O)COC)CC2 [Example 30, 1-(3-(4,4-bis(methoxy-methyl)cyclohexyl)-2-((methyl(2-(methylamino)-ethyl)amino)methyl)-6,7-dihydropyrazolo[1,5-a]-pyrazin-5(4H)-yl)-2-methoxyethan-1-one]",0.795,0.159
0.293,0.046,"CNCCN(C)Cc1nn2c(c1C1CCC(COC)(COC)CC1)CN(C(=O)C1CCCO1)CC2 (stereo not shown) [Example 32, (3-(4,4-bis(methoxymethyl)-cyclohexyl)-2-((methyl(2-(methylamino)ethyl)amino)-methyl)-6,7-dihydropyrazolo-[1,5-a]pyrazin-5(4H)-yl)-(tetrahydrofuran-2-yl)-methanone]",0.163,0.16
0.12,0.055,"CNCCN(C)Cc1nn2c(c1C1CCC(COC)(COC)CC1)CN(C(=O)C1CCCC1)CC2 [Example 33, (3-(4,4-bis(methoxymethyl)-cyclohexyl)-2-((methyl(2-(methylamino)ethyl)amino)-methyl)-6,7-dihydropyrazolo-[1,5-a]pyrazin-5(4H)-yl)-(cyclopentyl)methanone]",0.055,0.083
0.818,0.062,"CNCCN(C)Cc1nn2c(c1C1CCC(COC)(COC)CC1)CN(C(=O)C1CCOC1)CC2 (stereo not shown) [Example 35, (3-(4,4-bis(methoxymethyl)-cyclohexyl)-2-((methyl(2-(methylamino)ethyl)amino)-methyl)-6,7-dihydropyrazolo-[1,5-a]pyrazin-5(4H)-yl)-(tetrahydrofuran-3-yl)-methanone]",0.655,0.212
0.269,0.05,"CNCCN(C)Cc1nn2c(c1C1CCC(COC)(COC)CC1)CN(C(=O)C(C)(F)F)CC2 [Example 36, 1-(3-(4,4-bis(methoxy-methyl)cyclohexyl)-2-((methyl(2-(methylamino)-ethyl)amino)methyl)-6,7-dihydropyrazolo[1,5-a]-pyrazin-5(4H)-yl)-2,2-difluoropropan-1-one]",0.246,0.19
0.237,0.09,"CNCCN(C)Cc1nn2c(c1C1CCC(COC)(COC)CC1)CN(C(=O)C(C)(C)C#N)CC2 [Example 37, 3-(3-(4,4-bis(methoxy-methyl)cyclohexyl)-2-((methyl(2-(methylamino)-ethyl)amino)methyl)-6,7-dihydropyrazolo[1,5-a]-pyrazin-5(4H)-yl)-2,2-dimethyl-3-oxopropanenitrile]",0.171,0.142
0.69,0.103,"CNCCN(C)Cc1nn2c(c1C1CCC(COC)(COC)CC1)CN(C(=O)C(C)C#N)CC2 (stereo not shown) [Example 38, 3-(3-(4,4-bis(methoxy-methyl)cyclohexyl)-2-((methyl(2-(methylamino)-ethyl)amino)methyl)-6,7-dihydropyrazolo[1,5-a]-pyrazin-5(4H)-yl)-2-methyl-3-oxopropanenitrile]",0.58,0.083
0.177,0.079,"CNCCN(C)Cc1nn2c(c1C1CCC(COC)(COC)CC1)CN(C(=O)C1CC(C)(C)C1)CC2 [Example 39, (3-(4,4-bis(methoxymethyl)-cyclohexyl)-2-((methyl(2-(methylamino)ethyl)amino)-methyl)-6,7-dihydropyrazolo-[1,5-a]pyrazin-5(4H)-yl)(3,3-dimethylcyclobutyl)-methanone]",0.049,0.108
1.52,0.054,"COCC1(COC)CCC(c2c(CN(C)CCN)nn3c2CN(C(=O)C2CC(F)(F)C2)CC3)CC1 [Example 40, (2-(((2-aminoethyl)(methyl)-amino)methyl)-3-(4,4-bis-(methoxymethyl)cyclohexyl)-6,7-dihydropyrazolo[1,5-a]-pyrazin-5(4H)-yl)(3,3-difluorocyclobutyl)-methanone]",0.304,0.249
0.18,0.072,"CNCCN(C)Cc1nn2c(c1C1CCC(COC)(COC)CC1)CN(C(=O)C1(C#N)CCC1)CC2 [Example 41, 1-(3-(4,4-bis(methoxy-methyl)cyclohexyl)-2-((methyl(2-(methylamino)-ethyl)amino)methyl)-4,5,6,7-tetrahydropyrazolo[1,5-a]-pyrazine-5-carbonyl)cyclobutane-1-carbonitrile]",0.175,0.091
0.431,0.029,"COCC1(COC)CCC(c2c(CN(C)CCN)nn3c2CN(C(=O)C2CCCC2)CC3)CC1 [Example 42, (2-(((2-aminoethyl)(methyl)-amino)methyl)-3-(4,4-bis-(methoxymethyl)cyclohexyl)-6,7-dihydropyrazolo[1,5-a]-pyrazin-5(4H)-yl)-(cyclopentyl)methanone]",0.136,0.18
0.46,0.027,"COCC1(COC)CCC(c2c(CN(C)CCN)nn3c2CN(C(=O)C(C)C)CC3)CC1 [Example 43, 1-(2-(((2-aminoethyl)-(methyl)amino)methyl)-3-(4,4-bis(methoxymethyl)-cyclohexyl)-6,7-dihydro-pyrazolo[1,5-a]pyrazin-5(4H)-yl)-2-methylpropan-1-one]",0.149,0.185
0.21,0.017,"COCC1(COC)CCC(c2c(CN(C)CCN)nn3c2CN(C(=O)C24CC(C2)C4)CC3)CC1 [Example 44, (2-(((2-aminoethyl)(methyl)-amino)methyl)-3-(4,4-bis-(methoxymethyl)cyclohexyl)-6,7-dihydropyrazolo[1,5-a]-pyrazin-5(4H)-yl)(bicyclo-[1.1.1]pentan-1-yl)methanone]",0.123,0.15
0.83,0.018,"COCC1(COC)CCC(c2c(CN(C)CCN)nn3c2CN(C(=O)C24CC(F)(C2)C4)CC3)CC1 [Example 45, (2-(((2-aminoethyl)(methyl)-amino)methyl)-3-(4,4-bis-(methoxymethyl)cyclohexyl)-6,7-dihydropyrazolo[1,5-a]-pyrazin-5(4H)-yl)(3-fluorobicyclo[1.1.1]pentan-1-yl)methanone]",0.178,0.175
0.486,0.029,"COCC1(COC)CCC(c2c(CN(C)CCN)nn3c2CN(C(=O)C2(C(F)(F)F)CC2)CC3)CC1 [Example 46, (2-(((2-aminoethyl)(methyl)-amino)methyl)-3-(4,4-bis-(methoxymethyl)cyclohexyl)-6,7-dihydropyrazolo[1,5-a]-pyrazin-5(4H)-yl)(1-(trifluoro-methyl)cyclopropyl)-methanone]",0.294,0.288
